What was measured:
Assay in all cases: relative viability (nuclei count vs DMSO), 5 days (fraction); higher = more cells survive
[1] = compound: CCN1CCC(CC1)N2C=C(N=N2)CNC3=CC4=C(C(=CN=C4C(=C3)Cl)C#N)NC5=CC(=C(C=C5)F)Cl [KIN001-266] + NC(=O)Nc1cc(-c2cccc(F)c2)sc1C(=O)N[C@H]1CCCNC1 [AZD7762] (partner 0.2 µM)
Procedure, shortened: (§1)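 Each reported value is a median over duplicate plates. It expresses relative viability: treated-well nuclei count divided by vehicle-well nuclei count. Lung cancer cell lines in 1536-well plates were dosed by pin tool a day after seeding, alone with one drug or with a fixed anchor-drug dose plus five library-drug doses (not always all listed) in √10 steps, and nuclei were counted after 5 days.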

[2] = compound: CCN1CCC(CC1)N2C=C(N=N2)CNC3=CC4=C(C(=CN=C4C(=C3)Cl)C#N)NC5=CC(=C(C=C5)F)Cl [KIN001-266] + Nc1ncn([C@H]2C[C@H](O)[C@@H](CO)O2)c(=O)n1 [Decitabine] (partner 2 µM)
Procedure, shortened: as §1

[3] = compound: CCN1CCC(CC1)N2C=C(N=N2)CNC3=CC4=C(C(=CN=C4C(=C3)Cl)C#N)NC5=CC(=C(C=C5)F)Cl [KIN001-266] + Cc1cc(Nc2cc(N3CCN(C)CC3)nc(Sc3ccc(NC(=O)C4CC4)cc3)n2)n[nH]1 [Tozasertib] (partner 0.1 µM)
Procedure, shortened: as §1

[4] = compound: CCN1CCC(CC1)N2C=C(N=N2)CNC3=CC4=C(C(=CN=C4C(=C3)Cl)C#N)NC5=CC(=C(C=C5)F)Cl [KIN001-266] + CC(C)C[C@H](NC(=O)[C@H](Cc1ccccc1)NC(=O)c1cnccn1)B(O)O [Bortezomib] (partner 0.002 µM)
Procedure, shortened: as §1

Cell Line	relative viability ([1]; first compound 0.08 µM)	relative viability ([1]; first compound 0.253 µM)	relative viability ([1]; first compound 0.8 µM)	relative viability ([1]; first compound 2.53 µM)	relative viability ([1]; first compound 8 µM)	relative viability ([2]; first compound 0.08 µM)	relative viability ([2]; first compound 0.253 µM)	relative viability ([2]; first compound 0.8 µM)	relative viability ([2]; first compound 2.53 µM)	relative viability ([2]; first compound 8 µM)	relative viability ([3]; first compound 0.08 µM)	relative viability ([3]; first compound 0.253 µM)	relative viability ([3]; first compound 0.8 µM)	relative viability ([3]; first compound 2.53 µM)	relative viability ([3]; first compound 8 µM)	relative viability ([4]; first compound 0.08 µM)	relative viability ([4]; first compound 0.253 µM)	relative viability ([4]; first compound 0.8 µM)	relative viability ([4]; first compound 2.53 µM)	relative viability ([4]; first compound 8 µM)
NCI-H2342	0.559	0.492	0.451	0.431	0.545	0.693	0.762	0.662	0.872	0.817	0.524	0.506	0.584	0.627	0.414	–	–	–	–	–
NCI-H1944	0.579	0.544	0.401	0.46	0.394	0.421	0.459	0.401	0.415	0.393	0.25	0.264	0.241	0.235	0.254	–	–	–	–	–
SW 1573	–	–	–	–	–	0.504	0.447	0.699	0.427	0.429	0.219	0.186	0.162	0.184	0.224	1.13	0.914	1.09	0.92	0.808
COR-L 105	–	–	–	–	–	0.584	0.661	0.641	0.725	0.677	0.388	0.322	0.381	0.342	0.296	0.886	0.884	0.719	0.768	0.602
EBC-1	–	–	–	–	–	–	–	–	–	–	–	–	–	–	–	0.566	0.502	0.477	0.446	0.364
SK-LU-1	–	–	–	–	–	0.718	0.623	0.615	0.552	0.478	0.403	0.375	0.322	0.307	0.286	1.39	1.14	1.31	1.12	1.04
NCI-H1648	0.721	0.713	0.518	0.572	0.669	0.487	0.497	0.501	0.507	0.517	0.711	0.513	0.436	0.558	0.485	–	–	–	–	–
SW 900	0.639	0.601	0.527	0.522	0.327	0.733	0.448	0.463	0.427	0.343	0.741	0.584	0.567	0.482	0.491	–	–	–	–	–
NCI-H520	–	–	–	–	–	0.538	0.548	0.576	0.474	0.459	0.426	0.441	0.434	0.466	0.413	0.633	0.677	0.535	0.544	0.675
UMC-11	–	–	–	–	–	0.646	0.576	0.698	0.66	0.603	0.209	0.215	0.213	0.219	0.213	0.703	0.543	0.71	0.638	0.738
NCI-H1792	0.825	0.66	0.738	0.902	0.516	0.543	0.562	0.508	0.522	0.463	–	–	–	–	–	0.962	0.927	0.879	0.917	0.948
